Experiments:
Tissue weight at autopsy = assay type: in vivo, C57BL/6J mice; details: high-fat diet+3% taxifolin vs high-fat diet only, 12 weeks
Procedure: The last fasting blood glucose was measured 5 days after the day of PGTT, and all blood samples were collected under ether anesthesia, then the mice were euthanized by cervical dislocation, and samples were collected and partially weighed as shown in Table 3 below.

ACC = experiment: Liver ACC phosphorylation, Western blotting; assay type: in vivo, C57BL/6J mice; details: 12 weeks
From the text: (§1) AMPK phosphorylation, ACC phosphorylation: Western blotting

[1] = system: F4/80, TNF-α, IL-1β gene expression; experiment: Liver tissue inflammation index gene expression, RT PCR; assay type: in vivo, C57BL/6J mice; details: high-fat diet+3% taxifolin vs high-fat diet only, 12 weeks
From the text: F4/80, TNF-α, IL-1β gene expression: Real-time Quantitative RT PCR

[2] = Fasting blood glucose and intraperitoneal glucose tolerance test (IPGTT); assay type: in vivo, C57BL/6J mice; details: 12 weeks
Procedure: (§2) They were allowed to eat and drink freely, and their food intake and body weight were measured once a week. Fasting blood glucose was measured on the first day of the feeding experiment and once every 4 weeks thereafter (at 4, 8, and 12 weeks after the start of the feeding). At the end of 12 weeks, an intraperitoneal glucose tolerance test (IPGTT) was performed to analyze glucose tolerance. Rectal temperature was also measured at 8 and 12 weeks follow-up (Table 2). glucose tolerance: The area under the blood glucose curve (AUC) was calculated from the blood glucose fluctuation curve from fasting blood glucose level to 120 min after ingestion using the trapezoidal formula.

AMPK = experiment: Liver AMPK phosphorylation, Western blotting; assay type: in vivo, C57BL/6J mice; details: 12 weeks
From the text: as §1

lipid peroxidation = experiment: Blood and liver tissue lipid peroxidation (MDA) assay; assay type: in vivo, C57BL/6J mice; details: 12 weeks
From the text: Blood and liver tissue lipid peroxidation: Lipid Peroxidation (MDA) Colorimetric Assay Kit (BioVision, Inc.)

[3] = system: acute pancreatitis model mouse; details: non-patent document 10; cited from earlier work
[4] = system: fatty acid oxidation-related genes; experiment: Liver fatty acid oxidation-related gene expression, RT PCR; assay type: in vivo, C57BL/6J mice; details: high-fat diet+3% taxifolin vs high-fat diet only, 12 weeks
UCP1 gene = UCP1 gene expression in brown adipose tissue, real-time RT PCR; assay type: in vivo, C57BL/6J mice; details: high-fat diet+3% taxifolin vs high-fat diet only, 12 weeks
From the text: (§3) (vii) Histological Analysis of the Liver Observation of morphology and fat accumulation: Hematoxylin Eosin (HE) staining Observation of fibrosis: Azan staining, SiriusRed staining, immunohistochemistry (anti-F4/80 antibody) (viii) Analysis of Brown Adipocytes and UCP1 Target tissue: Brown adipose tissue Target: UCP1 gene Means of analysis: real-time RT PCR analysis

[5] = Rectal temperature measurement; assay type: in vivo, C57BL/6J mice; details: normal diet+3% taxifolin group
Procedure: as §2, with “2).” for “2). glucose tolerance: The area under the blood glucose curve (AUC) was calculated from the blood glucose fluctuation curve from fasting blood glucose level to 120 min after ingestion using the trapezoidal formula.”

[6] = Blood concentration and biochemical test; assay type: in vivo, C57BL/6J mice; details: high-fat diet+3% taxifolin vs high-fat diet only, 12 weeks
From the text: insulin concentration: Ultra-sensitive mouse insulin ELISA kit (Morinaga Institute of Biological Science, Inc.) leptin concentration: mouse/rat leptin ELISA kit (Morinaga Institute of Biological Science, Inc.) adiponectin concentration: mouse/rat adiponectin ELISA kit (Otsuka Pharmaceutical Co., Ltd.) Triglyceride: Lab Assay Kit (Wako) TNF-α, IL-1β concentration: ELISA kit (Proteintech) ALT, AST levels: Assay Kit (Funakoshi Co., Ltd.)

[7] = system: anti-oxidation enzymes (Mn-SOD, CuZn-SOD, Catalase, GP-x); experiment: Anti-oxidation enzyme gene expression, RT PCR; assay type: in vivo, C57BL/6J mice; details: 12 weeks
From the text: Anti-oxidation enzyme (Mn-SOD, CuZn-SOD, Catalase, GPx) gene expression: Real-time Quantitative RT PCR

[8] = Food ingestion experiment: body weight and food intake; assay type: in vivo, C57BL/6J mice
Procedure: C57BL/6J mice were used as experimental animals. They were purchased at the age of 7 weeks from CLEA Japan, Inc. and randomly divided into four groups at the age of 8 weeks after 1 week of acclimation as shown in Table 1 below. They were allowed to eat and drink freely, and their food intake and body weight were measured once a week. Fasting blood glucose was measured on the first day of the feeding experiment and once every 4 weeks thereafter (at 4, 8, and 12 weeks after the start of the feeding). At the end of 12 weeks, an intraperitoneal glucose tolerance test (IPGTT) was performed to analyze glucose tolerance. Rectal temperature was also measured at 8 and 12 weeks follow-up (Table 2).

[9] = system: type 1 diabetes model rat; details: non-patent document 11; cited from earlier work
[10] = system: αSMA, PAI1, TGF-β1, Type1 collagen gene expression; experiment: Liver fibrosis index gene expression, RT PCR; assay type: in vivo, C57BL/6J mice; details: high-fat diet+3% taxifolin vs high-fat diet only, 12 weeks
From the text: αSMA, PAI1, TGF-β, 1-type Collagen gene expression: Real-time Quantitative RT PCR

[11] = system: Alzheimer's disease model mouse; details: cited from earlier work
liver tissue = experiment: Histological analysis of the liver (HE, Azan, SiriusRed, anti-F4/80); assay type: in vivo, C57BL/6J mice; details: 12 weeks
Procedure: as §3, with “Liver samples were partially trimmed for tissue observation, washed, immersed in 4% paraformaldehyde, and fixed at 4° C. overnight. The fixed samples were washed, dehydrated in an ascending ethanol series, and paraffin-embedded. (vii)” for “(vii)”

[12] = system: P38 MAPK, NF-κB p65, JNK phosphorylation; experiment: Inflammation induction signal pathway activity in liver, Western blotting; assay type: in vivo, C57BL/6J mice; details: high-fat diet+3% taxifolin vs high-fat diet only, 12 weeks
From the text: P38 MAPK phosphorylation, NF-κB p65 phosphorylation, JNK phosphorylation: Western blotting

[13] = system: liver fatty acid synthesis-related genes; experiment: Liver fatty acid synthesis-related gene expression, RT PCR; assay type: in vivo, C57BL/6J mice; details: high-fat diet+3% taxifolin vs high-fat diet only, 12 weeks
From the text: Srebp1c, Lxra, FAS, Scd1, PPARα, Cpt1a gene expression: Real-time Quantitative RT PCR

[14] = non-patent document 9; cited from earlier work
[15] = system: F4/80, αSMA, TGF-β1 protein; experiment: Liver fibrosis index protein amount, Western blotting; assay type: in vivo, C57BL/6J mice; details: 12 weeks
From the text: F4/80, αSMA, TGF-β1 protein amount: Western blotting

[16] = high-fat diet+3% taxifolin vs high-fat diet only
[17] = normal diet+3% taxifolin vs normal diet only
[18] = liver tissue, high-fat diet+3% taxifolin vs high-fat diet only

SMILES: O=C1c2c(O)cc(O)cc2O[C@H](c2ccc(O)c(O)c2)[C@H]1O [taxifolin]
- brown adipose tissue weight (BAT weight) (Tissue weight at autopsy): significantly decreased
- epididymal fat weight (EPI WAT weight) (Tissue weight at autopsy): significantly decreased
- liver weight (Tissue weight at autopsy): significantly decreased
- ACC phosphorylation (ACC; [16]): significantly increased
- ACC phosphorylation (ACC; [17]): significantly increased
- F4/80 gene expression [1]: significantly decreased
- IL-1β gene expression [1]: significantly decreased
- TNF-α gene expression [1]: significantly decreased
- fasting blood glucose (FIG. 6A) [2, 16]: significantly decreased
- blood glucose area under the curve (AUC) ([2]; high-fat diet+3% taxifolin vs high-fat diet only, IPGTT): significantly decreased
- blood glucose level at 60 min after start of intraperitoneal glucose tolerance test ([2]; normal diet+3% taxifolin group): significantly lower
- fasting blood glucose (FIG. 3A) ([2]; normal diet+3% taxifolin group): significantly lower
- fasting blood glucose (FIG. 6A) [2, 17]: significantly decreased
- AMPK phosphorylation (AMPK; [16]): significantly increased
- AMPK phosphorylation (AMPK; [17]): significantly increased
- concentration of MDA in the liver (lipid peroxidation; [16]): significantly decreased
- concentration of malondialdehyde (MDA) in blood (lipid peroxidation; [16]): significantly decreased
- concentration of MDA in the liver (lipid peroxidation; [17]): significantly decreased
- anti-oxidation action [3]: anti-oxidation action
- Cd36 gene expression [4]: significantly decreased
- UCP1 gene expression (UCP1 gene): significantly increased
- rectal temperature ([5]; 8 weeks): significantly higher
- rectal temperature ([5]; 12 weeks): trend was also observed
- blood ALT levels [6]: significantly decreased
- blood insulin concentration [6]: significantly decreased
- blood leptin concentration [6]: significantly decreased
- insulin resistance index (HOMA-R) [6]: significantly decreased
- liver triglyceride concentration [6]: significantly decreased
- blood TNF-α concentration ([6]; P=0.076): tendency to decrease
- blood triglyceride concentration ([6]; P=0.079): decreasing trend
- blood IL-1β concentration ([6]; P=0.0932): tendency to decrease
- Catalase gene expression [7, 16]: significantly decreased
- CuZn-SOD gene expression [7, 16]: significantly decreased
- GP-x gene expression [7, 16]: significantly decreased
- Mn-SOD gene expression [7, 16]: significantly decreased
- Mn-SOD gene expression [7, 17]: significantly decreased
- body weight ([8]; high-fat diet+3% taxifolin vs high-fat diet only, 4 weeks): significant difference
- body weight ([8]; normal diet+3% taxifolin group vs all other groups, 8 weeks): significant difference in weight loss
- body weight ([8]; normal diet+3% taxifolin group vs other groups, 12 weeks): no weight gain was observed
- body weight ([8]; normal diet+3% taxifolin group, 6 weeks): significant difference in weight loss
- blood glucose [9]: blood glucose-improving effects
- PAI1 gene expression [10]: significantly decreased
- TGF-β1 gene expression [10]: significantly decreased
- αSMA gene expression [10]: significantly decreased
- Collagen 1 gene expression ([10]; P=0.07): decreasing trend
- amyloid P coagulation [11]: suppression of amyloid P coagulation
- brain blood flow [11]: improvement of brain blood flow
- spatial recognition function in the water maze test [11]: improvement of spatial recognition function
- hepatic crown-like structures (hCLS), anti-F4/80 immunohistochemical staining (liver tissue; high-fat diet+3% taxifolin group vs high-fat diet-only group): hardly observed
- fat accumulation in liver, HE staining (liver tissue; [16]): markedly reduced
- amount of collagen stained blue, Azan staining (liver tissue; [18]): reduced
- amount of collagen stained red, Sirius Red staining (liver tissue; [18]): decreased
- NF-κB p65 phosphorylation [12]: significantly decreased
- P38 MAPK phosphorylation ([12]; P=0.1045): decreasing trend
- c-Jun amino-terminal kinase (JNK) phosphorylation ([12]; P=0.1701): decreasing trend
- FAS gene expression [13]: significantly decreased
- Lxrα gene expression [13]: significantly decreased
- Scd1 gene expression [13]: significantly decreased
- Srebp1c gene expression [13]: significantly decreased
- safety for intake [14]: safe for intake
- F4/80 protein amount [15, 16]: significantly decreased
- αSMA protein amount ([15]; high-fat diet+3% taxifolin vs high-fat diet only, P=0.054): decreasing trend
- F4/80 protein amount [15, 17]: decrease was significant
- TGF-β1 protein amount [15, 17]: significantly decreased

From patent publication US20220265603A1, “HEPATIC FIBROSIS-INHIBITING AGENT AND BROWN FAT CELL-ACTIVATING AGENT CONTAINING TAXIFOLIN” (NATIONAL HOSPITAL ORGANIZATION, priority 2019, published 2022)
